The numbers were not newly measured in patent publication US20060018840A1, “Aerosolizable formulation comprising nicotine” (priority 2004, published 2006), which cites them from elsewhere.

As for `CC(O)C(=O)O` (stereo not shown) [lactic acid], the pKa entry is “about 3.8”.
